# Laboratory results as given in PubChem BioAssay (NCI).
#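 Briefly, cells in 96-well plates were exposed to five compound concentrations for 48 h, and endpoints were estimated by linear interpolation. TGI is the concentration that stops growth completely.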
# Experiments:
# Test in all cases: NCI tumour cell line growth inhibition, 48 h
# DLD-1 colon = tested on: DLD-1 colon
# DMS 114 small cell lung = tested on: DMS 114 small cell lung
# DMS 273 small cell lung = tested on: DMS 273 small cell lung
# HOP-18 NSCLC = tested on: HOP-18 NSCLC
# KM20L2 colon = tested on: KM20L2 colon
# P388 leukemia = tested on: P388 leukemia
# P388/ADR leukemia = tested on: P388/ADR leukemia
# SN12K1 renal = tested on: SN12K1 renal
# XF 498 CNS = tested on: XF 498 CNS
# LXFL 529 NSCLC = tested on: LXFL 529 NSCLC
Compound,TGI (DLD-1 colon),TGI (DMS 114 small cell lung),TGI (DMS 273 small cell lung),TGI (HOP-18 NSCLC),TGI (KM20L2 colon),TGI (P388 leukemia),TGI (P388/ADR leukemia),TGI (SN12K1 renal),TGI (XF 498 CNS),TGI (LXFL 529 NSCLC)
C[N+](C)([O-])CCOc1cc2c(c3ccccc13)-c1ccccc1C2=O,> 100 µM,24.7 µM,43.9 µM,> 100 µM,> 63.5 µM,> 100 µM,> 45.2 µM,37.8 µM,37.9 µM,
O=C1OCC/C1=N/O,> 100 µM,> 100 µM,> 100 µM,> 100 µM,> 100 µM,,,,,> 100 µM
Cc1c2cc[n+](C)c(C)c2cc2c1[nH]c1ccccc12,> 100 µM,10.4 µM,39.1 µM,11.8 µM,44.5 µM,86.6 µM,> 100 µM,16.8 µM,,
CCOC(=O)C1S/C(=N\C(=N)N[N+](=O)[O-])N=C1C (configuration not stated),> 100 µM,> 100 µM,,> 100 µM,> 100 µM,,,,> 100 µM,> 100 µM
Cc1ccc(/C=N\NC2c3cc(Cl)ccc3Nc3nc(=O)[nH]c(C)c32)cc1 (configuration not stated),> 100 µM,> 100 µM,> 100 µM,,> 100 µM,,,,> 100 µM,> 100 µM
O=C(O)C(Cl)(Cl)Cl,> 100 µM,> 100 µM,> 100 µM,> 100 µM,> 100 µM,,,,> 100 µM,> 100 µM
O=C(O)COc1ccccc1C(=O)Nc1ccccc1,> 100 µM,,> 100 µM,,> 100 µM,,,,> 100 µM,> 100 µM
CC(O)CNC(=O)C(C)Oc1ccc(OCC2CCCCC2)cc1 (configuration not stated),,> 100 µM,> 100 µM,> 100 µM,,,,,> 100 µM,> 100 µM
